≈ marks a conversion by molar mass, not a printed value. Calls of active or inactive are those of the source. The rule behind the calls is not given here.
Tests used:
[1] = molecular target: T1, DNA topoisomerase 2-alpha (Homo sapiens, UniProt P11388); assay: Inhibition of human topoisomerase 2alpha-mediated relaxation of supercoiled pBR322 DNA
[2] = molecular target: T2, DNA topoisomerase 1 (Homo sapiens) (UniProt P11387); assay: (§1) Inhibition of human topoisomerase 1-mediated relaxation of supercoiled pBR322 DNA
T2 sequence (whole entry): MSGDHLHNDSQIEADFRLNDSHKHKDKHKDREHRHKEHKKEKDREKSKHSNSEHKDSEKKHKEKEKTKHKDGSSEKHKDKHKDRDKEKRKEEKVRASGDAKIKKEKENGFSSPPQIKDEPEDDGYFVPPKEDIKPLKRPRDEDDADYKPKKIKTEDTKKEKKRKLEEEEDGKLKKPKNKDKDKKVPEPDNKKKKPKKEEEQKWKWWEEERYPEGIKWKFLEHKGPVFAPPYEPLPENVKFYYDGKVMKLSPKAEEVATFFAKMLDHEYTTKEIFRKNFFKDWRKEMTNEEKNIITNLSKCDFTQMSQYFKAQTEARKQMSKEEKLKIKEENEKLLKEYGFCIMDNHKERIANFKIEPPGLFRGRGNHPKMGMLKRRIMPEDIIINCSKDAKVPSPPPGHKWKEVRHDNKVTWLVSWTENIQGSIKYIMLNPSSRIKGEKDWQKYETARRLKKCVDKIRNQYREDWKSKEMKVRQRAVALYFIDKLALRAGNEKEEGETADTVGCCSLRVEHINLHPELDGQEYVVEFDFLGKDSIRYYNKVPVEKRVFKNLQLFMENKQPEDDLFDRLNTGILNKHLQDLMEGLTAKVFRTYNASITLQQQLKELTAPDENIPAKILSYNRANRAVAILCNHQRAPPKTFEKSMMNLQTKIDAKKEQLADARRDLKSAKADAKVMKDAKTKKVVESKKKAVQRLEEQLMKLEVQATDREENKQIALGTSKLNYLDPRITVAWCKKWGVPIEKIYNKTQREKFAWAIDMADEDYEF

Nucleic Acid = assay: Binding affinity to calf thymus DNA assessed as change in absorption spectra at increasing concentration at pH 8 by UV-Vis spectra analysis; type: nucleic-acid assay; conditions: Bos taurus
[3] = Inhibition of Escherichia coli DNA topoisomerase 1-mediated relaxation of supercoiled pBR322 DNA
[4] = molecular target: T1, DNA topoisomerase 2-alpha; assay: Inhibition of human topoisomerase 2alpha kinetoplast DNA decatenation activity assessed as formation of monomeric circle from DNA at pH 8 after 1 hr
HL-60 = assay: Cytotoxicity against human HL60 cells after 72 hrs by MTT assay; type: functional, cell-based; conditions: HL-60, 72 h
DNA topoisomerase 1 = molecular target: T3, DNA topoisomerase 1 (Homo sapiens, UniProt P11387); assay: as §1
T3 sequence (P11387 whole entry): T2 sequence (whole entry)

Salmonella typhi = assay: Antibacterial activity against Salmonella typhi by agar dilution method; type: functional, Salmonella enterica subsp. enterica serovar Typhi; conditions: Salmonella enterica
[5] = Inhibition of Escherichia coli DNA topoisomerase 4-mediated relaxation of supercoiled pBR322 DNA
Escherichia coli [6] = assay: Stabilization of Escherichia coli DNA topoisomerase 1-DNA cleavage complex assessed as cleavage enhancement using 32P-TAACCCTGAAAGATTATGCAATGCGCTTTGGG ssDNA as substrate at 10 to 200 uM at pH 8 after 20 mins by agarose gel electrophoresis relative to control
[7] = test system: Staphylococcus epidermidis; assay: Antibacterial activity against Staphylococcus epidermidis by agar dilution method; type: functional
Escherichia coli [8] = assay: Inhibition of Escherichia coli topoisomerase 4 kinetoplast DNA decatenation activity assessed as formation of monomeric circle from DNA at pH 8 after 1 hr
MCF7 = assay: Cytotoxicity against human MCF7 cells after 72 hrs by MTT assay; type: functional, cell-based; conditions: MCF7, 72 h

T1 sequence (P11388 whole entry): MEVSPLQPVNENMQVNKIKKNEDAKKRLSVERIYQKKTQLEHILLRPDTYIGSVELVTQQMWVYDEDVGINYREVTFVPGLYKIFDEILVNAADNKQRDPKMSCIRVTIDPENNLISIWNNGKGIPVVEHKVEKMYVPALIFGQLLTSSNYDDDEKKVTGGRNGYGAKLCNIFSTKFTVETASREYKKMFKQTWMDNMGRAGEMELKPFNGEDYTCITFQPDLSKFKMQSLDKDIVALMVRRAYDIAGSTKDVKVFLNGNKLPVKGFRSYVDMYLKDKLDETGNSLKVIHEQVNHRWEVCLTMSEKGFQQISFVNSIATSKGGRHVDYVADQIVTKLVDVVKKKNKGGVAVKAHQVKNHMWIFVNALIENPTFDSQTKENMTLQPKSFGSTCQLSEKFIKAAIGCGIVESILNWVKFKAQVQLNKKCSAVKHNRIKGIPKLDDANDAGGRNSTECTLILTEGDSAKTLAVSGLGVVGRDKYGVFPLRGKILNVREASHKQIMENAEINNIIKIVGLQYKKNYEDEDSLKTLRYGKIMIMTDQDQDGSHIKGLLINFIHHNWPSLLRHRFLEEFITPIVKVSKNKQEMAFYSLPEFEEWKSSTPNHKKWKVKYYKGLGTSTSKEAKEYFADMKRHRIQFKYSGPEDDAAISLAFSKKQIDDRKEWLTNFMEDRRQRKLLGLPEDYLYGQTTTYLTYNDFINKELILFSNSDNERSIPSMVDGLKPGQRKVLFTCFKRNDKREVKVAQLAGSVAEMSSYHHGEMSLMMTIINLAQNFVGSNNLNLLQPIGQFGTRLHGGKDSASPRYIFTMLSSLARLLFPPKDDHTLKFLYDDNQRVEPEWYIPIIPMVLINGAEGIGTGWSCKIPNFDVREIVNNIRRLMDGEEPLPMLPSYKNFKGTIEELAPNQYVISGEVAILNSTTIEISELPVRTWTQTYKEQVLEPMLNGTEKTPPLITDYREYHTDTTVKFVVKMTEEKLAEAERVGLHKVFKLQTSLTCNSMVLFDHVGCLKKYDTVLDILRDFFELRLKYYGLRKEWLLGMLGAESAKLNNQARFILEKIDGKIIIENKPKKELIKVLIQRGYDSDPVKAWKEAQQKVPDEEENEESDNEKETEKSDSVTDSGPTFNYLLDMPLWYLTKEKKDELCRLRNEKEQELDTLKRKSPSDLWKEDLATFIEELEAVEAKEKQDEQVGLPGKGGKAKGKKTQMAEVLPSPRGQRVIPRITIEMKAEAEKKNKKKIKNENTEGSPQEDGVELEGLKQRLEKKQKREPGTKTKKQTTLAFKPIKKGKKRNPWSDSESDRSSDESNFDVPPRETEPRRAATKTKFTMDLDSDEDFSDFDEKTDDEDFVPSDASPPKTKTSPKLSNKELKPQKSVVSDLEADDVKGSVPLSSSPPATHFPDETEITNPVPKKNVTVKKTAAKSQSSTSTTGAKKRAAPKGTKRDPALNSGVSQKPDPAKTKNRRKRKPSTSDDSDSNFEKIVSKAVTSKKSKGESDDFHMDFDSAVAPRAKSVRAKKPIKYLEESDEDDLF

Row | SMILES | inhibition [1] | inhibition [2] | Activity (Nucleic Acid) | IC50 [3] [µM] | IC50 [1] [µM] | inhibition [4] | IC50 (HL-60) [µM] | IC50 (DNA topoisomerase 1) [µM] | MIC (Salmonella typhi) [µg/mL] | IC50 [5] [µM] | fold change (FC) (Escherichia coli [6]) | MIC [7] [µg/mL] | inhibition (Escherichia coli [8]) | IC50 (MCF7) [µM]
1 | O[C@@H]1C=C[C@]23CCN(Cc4cc5c(cc42)OCO5)[C@H]3C1 | inactive | inactive | inactive | – | – | – | – | – | – | – | – | – | – | –
2 | O[C@H]1[C@H]2c3cc4c(cc3CN3CCC(=C[C@@H]1O)[C@H]23)OCO4 | inactive | inactive | inactive | – | – | – | – | – | – | – | – | – | – | –
3 | [O-]c1cc2c3c(c1)c1cc4c(cc1c[n+]3CC2)OCO4 [UNGEREMINE] | – | – | Active | 15 | 25.8 | Active | 1.4 | 6.1 | 125 (≈ 471 µM) | 7.3 | 250 | 31.2 (≈ 118 µM) | inactive | > 40
